Test results published in ChEMBL document CHEMBL1146976, “Radanamycin, a macrocyclic chimera of radicicol and geldanamycin” (Bioorg Med Chem Lett, 2006).
Calls of active or inactive are those of the source. The rule behind the calls is not given here.

How the values were obtained:
[1] = target: Heat shock protein HSP90 (Homo sapiens) (UniProt P07900+P08238); assay: Inhibition of Hsp90 assessed by degradation of client proteins Her2 and Akt; type: protein assay
MCF7 = assay: Antiproliferative activity against human MCF7 cells; type: functional, cell-based

Activity [1]: Active | IC50 (MCF7): 1.2 µM
SMILES: COc1c(O)cc2c(O)c1CC(C)OC(=O)c1c(O)cc(O)c(Cl)c1CCC(=O)N2 (configuration not stated) [RADANAMYCIN]
